The METLIN SMRT retention time set (Domingo-Almenara et al. 2019)

Assay: gradient 5% acetonitrile 3 min, to 50% in 2 min, to 85% in 15 min, held 3 min, 100 µL/min
Conditions: column: Zorbax Extend-C18 2.1 x 50 mm; eluents: water / acetonitrile, 0.1% formic acid
Summary of the method: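 Using water and acetonitrile that each contained 0.1% formic acid, mixtures of ~100 pure standards were separated at 100 μL/min on a Zorbax Extend-C18 column (2.1 × 50 mm, 1.8 μm). The HPLC fed a quadrupole time-of-flight mass spectrometer working in positive and negative ionization mode, with dead and dwell volumes of 40 μL and 900 μL. Data were acquired over 3 months. Retention time was read from computationally picked adduct peaks after manual inspection of each.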

Row | Compound | RP-LC retention time [s]
1 | CC1=NS(=O)(=O)N(Cc2ccccc2)C=C1C(=O)OCc1ccc(F)cc1F | 1090
2 | Fc1cccc(-c2nc(-c3cn(-c4cccc(F)c4)nn3)no2)c1 | 1090
3 | Cn1c(=O)c(C(=O)NCc2ccc(F)cc2Cl)nc2cccnc21 | 824
4 | O=C(CSCCSCC(=O)Nc1ccccc1)Nc1ccccc1 | 775
5 | CC(C)c1ccc(-c2nc3ncccn3c2NCc2ccc(Cl)cc2)cc1 | 936
6 | CCOc1ccccc1NC(=O)Cn1nc2n(c1=O)CCCCC2 | 766
7 | Cc1ccc(N2CCC(NC(=O)C3CCCC3)C2=O)cc1 (configuration not stated) | 762
8 | Cc1noc(-c2ccc(=O)n(Cc3ccccc3C)n2)n1 | 851
9 | Cc1nc(-c2csc(S(=O)(=O)N3CCCC(C(=O)Nc4ccc(F)c(F)c4)C3)c2)no1 (configuration not stated) | 1020
10 | Cc1nc(C(=O)NC2CCCCC2)c(C)o1 | 767
11 | COCCCn1c(=O)c2ccccc2n(Cc2nc(-c3cccc(C)c3)no2)c1=O | 855
12 | CCCNC(=O)c1cc(-c2ccc(F)cc2)cn1C | 930
13 | CCOC(=O)c1ccccc1NC(=O)Cn1cnc2nc(N3CCC(C(=O)NC)CC3)sc2c1=O | 701
14 | COc1ccccc1-c1cc2nc(C)cc(NCC3CCCO3)n2n1 (configuration not stated) | 592
15 | O=C(NCc1ccco1)c1c(O)c2sccc2[nH]c1=O | 787
16 | Cn1ccc2cc(S(=O)(=O)N3CCCC(C(=O)NCCCN4CCOCC4)C3)ccc21 (configuration not stated) | 627
17 | O=c1c2nc(-c3ccc(Br)cc3)cn2ccn1-c1ccc(F)c(F)c1 | 924
18 | O=C(Nc1nc(-c2ccccc2)cs1)c1ccccc1[N+](=O)[O-] | 947
19 | CCc1nc(-c2ccc(-c3noc(CNC(=O)c4ccccc4)n3)cc2)cs1 | 963
20 | COc1ccccc1NC(=O)Cn1cnc2nc(N3CCCC(C(=O)NC(C)C)C3)sc2c1=O (configuration not stated) | 688
21 | O=c1n(CC2CC2)c2cccnc2n1[C@H]1CCCN(S(=O)(=O)c2cccnc2)C1 | 835
22 | CCc1cc(C(=O)Nc2cc(OC)ccc2OC)nc2cc(-c3ccco3)nn12 | 1260

Row | Compound | RP-LC retention time [s]
23 | CC1CCN(C(=O)C2CC(=O)N(CCc3c[nH]c4ccc(F)cc34)C2)CC1 (configuration not stated) | 797
24 | Cc1ccc(-n2c(=O)c3c(cc(C)n3C)n(CC(=O)Nc3ccc(C)cc3Cl)c2=O)cc1 | 960
25 | COc1ccc(CNC(=O)C2CCN(c3cncnc3N3CCOCC3)CC2)cc1 | 651
26 | Cc1csc(-c2ccc(CNC(=O)c3ccoc3)cc2)n1 | 781
27 | COc1ccc(NC(=O)C2CCN(S(C)(=O)=O)c3cc(C)ccc3O2)cc1Cl (configuration not stated) | 957
28 | CCN1CCCC1CNC(=O)Cn1ncn2nc(-c3ccccc3)cc2c1=O (configuration not stated) | 604
29 | CCC(C)NC(=O)c1cc(=O)[nH]c2ccccc12 (configuration not stated) | 645
30 | Cc1ccc2c(Nc3cc(F)cc(F)c3)c(C(=O)N3CCCC3)cnc2n1 | 615
31 | CCn1nccc1C(=O)Nc1c(-c2cccc(F)c2)nc2sc(N3CCCCC3)nn12 | 964
32 | O=C(NCCc1ccccc1)c1nnc(-c2ccc(S(=O)(=O)N3CCCC3)cc2)o1 | 916
33 | O=C(Cn1c(=O)c(S(=O)(=O)c2ccccc2)cc2ccccc21)NCc1ccccc1Cl | 895
34 | CCOc1ccc(Nc2c(-c3ccc(C(=O)O)cc3)nc3cnccn23)cc1 | 729
35 | CCCN1CCN(C(=O)C2=NN(c3ccc(Cl)cc3)c3ncccc3S2(=O)=O)CC1 | 676
36 | O=S(=O)(c1cc(-c2noc(C3CCCC3)n2)cs1)N1CCC2(CC1)OCCO2 | 1140
37 | CCC1Oc2ccc(S(=O)(=O)N3CCC(C(=O)Nc4ccc(F)c(Cl)c4)CC3)cc2NC1=O (configuration not stated) | 969
38 | CCCS(=O)(=O)c1nc2ccc(NS(=O)(=O)c3ccc4c(c3)CCC4)cc2s1 | 999
39 | CCOC(=O)c1cnc(Nc2nc(C)c3cc(OC)ccc3n2)nc1C | 681
40 | O=C(Nc1ccc(-c2nc(-c3ccc(F)cc3)no2)cc1)c1cccs1 | 1170
41 | Cc1nc2cc(-c3noc(-c4c(F)cccc4Cl)n3)ccc2o1 | 1100
42 | Cc1cccc2nnc(N3CCN(C(=O)c4cc(F)cc(F)c4)CC3)n12 | 669
43 | CC(C(O)c1ccc(O)cc1)N1CCC(Cc2ccccc2)CC1 (configuration not stated) | 718
44 | CCc1cccc(C)c1NC(=O)Cn1nc(N2CCOCC2)c2ccccc2c1=O | 809

Row | Compound | RP-LC retention time [s]
45 | Cc1ccc(S(=O)(=O)N2C[C@@H]3C[C@H](NC(=O)c4cccnc4)[C@H]2C3)cc1C | 724
46 | CCOc1ccc(-c2noc(Cc3nnc(-c4ccc(F)cc4)o3)n2)cc1 | 1050
47 | Cc1cc(C(=O)NCCn2ncc3c(=O)n(Cc4ccc(F)cc4)cnc32)c(C)o1 | 705
48 | CCN1C(=O)COc2ccc(-c3csc(NC(=O)c4ccco4)n3)cc21 | 840
49 | O=C(NC1CC1)[C@@H]1C[C@H](Oc2ccccc2)CN1C(=O)C1CCC1 | 735
50 | CC(C)c1ccc(NC(=O)C2CCCN(c3ncnc4c3oc3ccccc34)C2)cc1 (configuration not stated) | 976
51 | CCCNc1cc(N2CCCC(CCC(=O)N3CCN(CC(C)C)CC3)C2)ncn1 (configuration not stated) | 552
52 | Cc1ccc(S(=O)(=O)c2cnc(N3CCN(c4ccccc4F)CC3)nc2N)cc1C | 1200
53 | COc1ccc(OC)c(CN2CCn3c(nn(CC4CC4)c3=O)C2)c1 | 620
54 | CC(C)Cn1cc(S(=O)(=O)N2CCN(c3ccccc3Cl)CC2)c2cccnc21 | 1220
55 | COc1cc(-c2nnc(-c3ccc(C)c(S(=O)(=O)N4CCCCC4)c3)o2)cc(OC)c1OC | 1090
56 | O=C(C1CCN(c2nc3ccc(-c4ccsc4)nc3s2)CC1)N1CCCCC1 | 911
57 | CN(C)CCNC(=O)c1cn(C)nc1S(=O)(=O)N1CCN(c2ccc(Cl)cc2)CC1 | 672
58 | Cc1cc(OCC(=O)N[C@@H](CC(C)C)C(=O)O)c2c3c(c(=O)oc2c1)CCCC3 | 894
59 | Cc1ccccc1N1CCN(C(=O)Cn2c(=O)c3nnc(C)n3c3ncccc32)CC1 | 793
60 | O=C(Nc1nnc(SCCN2CCOCC2)s1)C1CCC1 | 544
61 | COc1cccc(Sc2ccc(N3CCCC(C(=O)NCc4ccc5c(c4)OCO5)C3)nn2)c1 (configuration not stated) | 826
62 | CC(C)c1nccn1C1CN(C(=O)COc2ccc(F)cc2)C1 | 573
63 | O=C(NCCN1CCN(C(=O)c2cccs2)CC1)Nc1ccc(C(F)(F)F)cc1 | 586
64 | Cc1noc(C)c1S(=O)(=O)N1CCc2c(c(-c3nnc(-c4ccc(F)cc4)o3)nn2C)C1 | 910
65 | CCCN(C)c1nccn2c(=O)n(CC(=O)Nc3ccc(Cl)cc3F)nc12 | 735
66 | CC(C)N1CCCn2cc(S(=O)(=O)Nc3cccc(C(F)(F)F)c3)cc2C1=O | 865

Row | Compound | RP-LC retention time [s]
67 | O=C(CCC[C@@H]1[C@H]2CCCN3CCC[C@@H](CN1C(=O)c1cccs1)[C@@H]23)NCC1CC1 | 586
68 | COc1ccc(S(=O)(=O)N2[C@H]3CC[C@@H]2c2cnc(C)nc2C3)cc1 | 693
69 | O=C(CSc1ccc(S(=O)(=O)c2ccccc2)nn1)Nc1ccc2c(c1)OCCO2 | 821
70 | Cc1nc(CCNC(=O)C2CCN(C(=O)c3ccc(F)cc3)CC2)cs1 | 826
71 | Cc1ccc(-c2noc(-c3ccccc3S(=O)(=O)NCCN3CCC(C)CC3)n2)cc1 | 771
72 | O=C(NCc1ccc(F)cc1Cl)c1csc(C(=O)NC2CCCC2)n1 | 968
73 | COc1cccc(CNC(=O)C2CCN(S(=O)(=O)c3ccc4c(c3)sc(=O)n4C)CC2)c1 | 798
74 | O=C(c1cnccn1)N1CCC(N2C(=O)C(OCC3CC3)C23CCCCC3)CC1 (configuration not stated) | 752
75 | COc1cc2c(cc1OC)C(C(=O)NCCCN1CCCC1=O)C1c3ccccc3CCN1C2=O (configuration not stated) | 663
76 | CCOc1cccc(-c2noc(-c3nn(-c4cccc(OC)c4)ccc3=O)n2)c1 | 968
77 | Cc1cccc(-n2nnc(C(=O)O)c2-c2ccncc2)c1 | 620
78 | CCS(=O)(=O)N1CCCN(C2=NS(=O)(=O)C(c3ccc(C)c(C)c3)=C2C)CC1 | 872
79 | CCOC(=O)c1noc2nc(C)nc(NCCCN3CCN(c4cc(Cl)ccc4C)CC3)c12 | 948
80 | CC1CCN(C(=O)CSCc2nc3cccnc3n2C2CCCCC2)CC1 | 960
81 | O=C(C1COc2ccccc2O1)N1CCCC(COCc2ccccc2)C1 (configuration not stated) | 1030
82 | Cn1cc(-c2nc(C(=O)NCc3cccs3)cs2)c2cccnc21 | 851
83 | CCc1noc(NC(C)=O)c1-c1ccc(OC)c(S(=O)(=O)N2CCc3ccccc32)c1 | 860
84 | Cc1ccccc1-c1noc(-c2nnn3c2COC(c2ccc(F)cc2)C3)n1 (configuration not stated) | 1000
85 | CN(C(=O)Cn1nc(Cc2ccncc2)c2ccccc2c1=O)c1cccc(Cl)c1 | 644
86 | CC(C)Cn1c(=O)c(C(=O)NCc2ccccc2)nc2cccnc21 | 915
87 | CCN(CC)S(=O)(=O)c1ccc2c(c1)N(CC(=O)NCCc1ccccc1)C(=O)C1CCCCN21 (configuration not stated) | 1000
